The source of these data is patent US20020025983A1, “Vitamin K and essential fatty acids” (priority 2000, published 2002).

Assay [1] has as its system person with atopic dermatitis and with mild premenstrual syndrome. Kind of assay: Case report: person with atopic dermatitis and mild premenstrual syndrome given EPO, vitamin K1, then EPO again. It is filed as in vivo, human. Particulars: vitamin K1 supplements alone. The text has this: A person with atopic dermatitis and with mild premenstrual syndrome was recommended to take 3 g/day of evening primrose oil (EPO). EPO is a widely used nutritional supplement for these problems. It contains about 70% of linoleic acid, but more importantly contains 8-12% of GLA which can by-pass a block in the conversion of linoleic acid to GLA which can occur in many situations, including atopic dermatitis, stress and menstrual disorders. […] As an experiment they were then cautiously given EPO again.

Assay [2] deals with person with severe menstrual cramps and mild premenstrual syndrome. Put plainly: Case report: person with severe menstrual cramps and mild premenstrual syndrome given EPO and fish oil, vitamin K1, then EPO and fish oil again. It is filed as in vivo, human. Particulars: vitamin K1 supplement 2 mg (2000 μg) per day for a month, alone. On the procedure: A second person presented with severe menstrual cramps and mild premenstrual syndrome. […] They therefore took 2 mg (2000 μg) per day of a vitamin K1 supplement for a month which also had no effect on their menstrual problems.

The test system of a further assay is women with osteoporosis. Particulars: 45 mg/day; cited from earlier work.

`CC1=C(C/C=C(\C)CCC[C@H](C)CCC[C@H](C)CCCC(C)C)C(=O)c2ccccc2C1=O` [vitamin K1, phylloquinone]: in assay [1], the “improvement of skin or premenstrual syndrome” value was “did not improve” and the “vitamin K deficiency” value was “corrected”. The “effect on menstrual problems” value in assay [2] is recorded as “no effect”.

As for menaquinones [vitamin K2], in the assay with women with osteoporosis, the “progressive loss of bone mineral density” value was “slow down but not prevent” and the “risk of bone fractures” value was “could reduce the risk of bone fractures”.
